Assay results from patent US20060079453A1, “Hla binding peptides and their uses” (priority 2002, published 2006).
Values joined by “and” are separate entries in the source; they are usually repeats but may differ in a detail not shown here. Equal values may be shown once. Read-outs that look alike come from different tables or passages of the source. No end group written: not given here.

Assays:
H-2 Db = H-2 Db (Mus musculus, UniProt P01899); test: biochemical; format: binding, murine
HLA-A*0101 = HLA-A*0101 (Homo sapiens, UniProt P04439, A114D/A174V/A182V/D101N/D185E/E176A/E190D/L180R/Q94H/R68K/S129P/T187R/V100A/V91M/W191G); test: biochemical; format: binding; settings: Binding affinity to A*0101 (expressed as an IC50)
HLA-A*2902 = HLA-A*2902 (Homo sapiens, UniProt P04439, A270S/D101N/D185E/E176V/E277Q/E87Q/F33T/G231S/H175R/I121M/I218V/I322F/K168Q/L300P/L318F/M331R/P208A/P217A/Q86L/T323A/T345S/V100A/V358M); test: MHC molecular binding / Capture assay, IC50: A*2902
HLA-A*3002 = HLA-A*3002 (Homo sapiens, UniProt P04439, D101N/D140H/D185E/E176R/F33S/G80R/H175R/K168Q/Q94H/R138E/R41S/V100E); test: biochemical; format: binding
HLA-A*2301 = HLA-A*2301 (Homo sapiens, UniProt P04439, D101N/D140Y/D185E/E176V/E190D/F33S/G103R/G107R/H175R/I119L/I121M/I306V/K168Q/K335N/L105A/L300P/N151K/N90K/P307H/Q86E/Q94H/R106L/R138H/R89G/T104I/T345S/V100E/W191G/Y123F); test: biochemical; format: binding
HLA-A*2402 = HLA-A*2402 (Homo sapiens, UniProt P04439, D101N/D140Y/D185E/E176V/E190D/F33S/G103R/G107R/I119L/I121M/I306V/K335N/L105A/L180Q/L300P/N151K/N90K/Q86E/Q94H/R106L/R138H/R89G/T104I/T345S/V100E/W191G/Y123F); test: MHC molecular binding / Capture assay, IC50: A*2402
[1] = Binding affinity to A*2902 (expressed as an IC50)
[2] = Binding affinity to A*3002 (expressed as an IC50)

H-2 Db, sequence (P61769 21-119): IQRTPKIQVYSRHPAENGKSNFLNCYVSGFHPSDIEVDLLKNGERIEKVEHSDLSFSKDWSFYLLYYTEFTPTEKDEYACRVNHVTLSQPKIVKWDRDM
H-2 Db, sequence (P01899 25-362): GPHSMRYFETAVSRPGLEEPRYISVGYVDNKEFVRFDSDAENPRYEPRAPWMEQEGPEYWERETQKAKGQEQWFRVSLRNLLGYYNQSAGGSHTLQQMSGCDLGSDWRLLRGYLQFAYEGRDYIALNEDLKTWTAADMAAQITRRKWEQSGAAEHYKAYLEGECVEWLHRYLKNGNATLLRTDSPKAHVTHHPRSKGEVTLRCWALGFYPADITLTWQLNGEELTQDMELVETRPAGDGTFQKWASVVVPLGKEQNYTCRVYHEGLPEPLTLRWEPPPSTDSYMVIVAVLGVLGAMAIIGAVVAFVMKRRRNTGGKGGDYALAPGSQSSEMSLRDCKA

Molecule | IC50 (H-2 Db; Db) | IC50 (HLA-A*0101) | IC50 (HLA-A*2902) | IC50 (HLA-A*3002) | other results
SHYAFSPM | > 88 µM | – | – | – | –
SFYRNLLWL | 0.046 µM and 0.304 µM | – | – | – | –
TGIGNQNII | – | – | – | – | IC50 (H-2 Db; read-out: Db): 0.013 µM
TLEKLGPGPGY | – | 0.269 µM | – | – | IC50 (HLA-A*2902; [1]): 4.47 µM; IC50 (HLA-A*3002; [2]): 1.96 µM
CC[C@H](C)[C@H](NC(=O)[C@H](CCCCN)NC(=O)[C@H](CCC(=O)O)NC(=O)[C@H](CC(C)C)NC(=O)[C@@H](N)[C@@H](C)O)C(=O)N[C@H](C(=O)N[C@@H](CC(N)=O)C(=O)N[C@H](C(=O)N[C@@H](CCC(=O)O)C(=O)N[C@@H](CC(C)C)C(=O)N[C@@H](Cc1ccc(O)cc1)C(=O)O)[C@@H](C)O)[C@@H](C)O | – | 0.017 µM | – | – | IC50 (HLA-A*2902; [1]): 8.4 µM; IC50 (HLA-A*3002; [2]): 3.9 µM
YTDGPGIRY | – | 0.011 µM | 0.562 µM | 7.91 µM | –
YTKVSEFRWY | – | 0.276 µM and 0.204 µM | 3.31 µM | 0.42 µM | –
ELDSALEIPY | – | 0.038 µM | 82.2 µM | 38.3 µM | –
FQPQNGQFI | 0.0069 µM and 0.0049 µM and 0.017 µM | – | – | – | –
RMIQNSLTI | 0.0046 µM | – | – | – | –
FQAAESNERY | – | 8.96 µM | – | – | IC50 (HLA-A*2902; [1]): 1.78 µM; IC50 (HLA-A*3002; [2]): 0.372 µM
FAPGYNPAL [FAPGYNPAL] | 0.002 µM | – | – | – | –
YMRVNGKWM | 0.05 µM | – | – | – | –
KAVYNFATCGI | 0.029 µM | – | – | – | –
CC[C@H](C)[C@H](NC(=O)[C@H](Cc1c[nH]cn1)NC(=O)[C@H](Cc1ccccc1)NC(=O)[C@@H](N)Cc1c[nH]c2ccccc12)C(=O)N[C@@H](CO)C(=O)N[C@@H](CS)C(=O)N[C@@H](CC(C)C)C(=O)N[C@H](C(=O)N[C@@H](Cc1ccccc1)C(=O)O)[C@@H](C)O | – | 85.3 µM | 0.095 µM | 75.1 µM | IC50 (HLA-A*2301): 0.011 µM; IC50 (HLA-A*2402): 0.204 µM
STVKHHMY | – | 8.13 µM | 1.76 µM | 0.068 µM | –
ETSSALEIPY | – | 0.019 µM | 12 µM | 7.14 µM | –
CC(C)C[C@H](NC(=O)[C@@H](NC(=O)[C@@H](N)CCCCN)[C@@H](C)O)C(=O)N[C@@H](Cc1ccc(O)cc1)C(=O)N[C@@H](CCC(N)=O)C(=O)N[C@@H](CO)C(=O)N[C@@H](CC(N)=O)C(=O)N1CCC[C@H]1C(=O)N[C@@H](Cc1ccc(O)cc1)C(=O)O | – | 6.91 µM | – | – | IC50 (HLA-A*2902; [1]): 1.7 µM; IC50 (HLA-A*3002; [2]): 0.035 µM
TALANTIEY | – | – | – | – | IC50 (H-2 Db; read-out: Db): 0.0037 µM
CC(C)[C@H](NC(=O)[C@@H](NC(=O)[C@H](CC(=O)O)NC(=O)[C@H](CO)NC(=O)[C@H](CC(N)=O)NC(=O)[C@@H](NC(=O)CNC(=O)[C@H](CS)NC(=O)[C@@H](N)Cc1ccccc1)C(C)C)[C@@H](C)O)C(=O)O | 0.206 µM and 0.166 µM | – | – | – | –
FTDLRIVY | – | 0.026 µM | – | – | IC50 (HLA-A*2902; [1]): 0.813 µM; IC50 (HLA-A*3002; [2]): 8.06 µM
KVPRNQDWL | 0.038 µM | – | – | – | –
FTSKVRKYRY | – | 0.064 µM and 0.037 µM | 6.68 µM | 0.052 µM | –
SQVMNLHNL | 0.0023 µM | – | – | – | –
QTEQATSNYY | – | 0.011 µM | 9.58 µM | 0.5 µM | –
ASNENMDAM | 0.028 µM | – | – | – | –
